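Results reflect a 48-hour exposure of cells in 96-well plates to compound at five concentrations. GI50: concentration for 50% inhibition of growth.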 Active and inactive are the calls of the source. No stated cut-off is given here; in the data, active = GI50 up to about 1.1 µM and inactive = higher. Where a SMILES comes first, the peptide text is derived from it. The star is where a group is joined. Cbz = O=C(OCc1ccccc1)*
How the values were obtained:
Test in all cases: DTP human tumour cell line panel, 48 h
TK-10 = system: TK-10
NCI-H226 = system: NCI-H226
DU-145 = system: DU-145
Hs-578T = system: Hs-578T
RPMI-8226 = system: RPMI-8226
UACC-62 = system: UACC-62
SF-539 = system: SF-539
NCI-H23 = system: NCI-H23
SF-268 = system: SF-268
K562 = system: K562
HCC 2998 = system: HCC 2998
HOP-62 = system: HOP-62
MDA-MB-435 = system: MDA-MB-435
OVCAR-8 = system: OVCAR-8
MOLT-4 = system: MOLT-4
KM12 = system: KM12
SR = system: SR
Malme-3M = system: Malme-3M
HL-60 = system: HL-60
CCRF-CEM = system: CCRF-CEM

SMILES	GI50 (TK-10)	GI50 (NCI-H226)	GI50 (DU-145)	GI50 (Hs-578T)	GI50 (RPMI-8226)	GI50 (UACC-62)	GI50 (SF-539)	GI50 (NCI-H23)	GI50 (SF-268)	GI50 (K562)	GI50 (HCC 2998)	GI50 (HOP-62)	GI50 (MDA-MB-435)	GI50 (OVCAR-8)	GI50 (MOLT-4)	GI50 (KM12)	GI50 (SR)	GI50 (Malme-3M)	GI50 (HL-60)	GI50 (CCRF-CEM)
CCOC(=O)CNC(=O)C(C)NC(=O)C(NC(=O)OCc1ccccc1)C(C)C (stereo not drawn) (Cbz-Val-Ala-Gly-OEt; configuration not given here)	> 100 µM (inactive)	> 10 µM (inactive)	> 100 µM (inactive)	> 100 µM (inactive)	> 100 µM (inactive)	> 100 µM (inactive)	> 100 µM (inactive)	> 100 µM (inactive)	> 100 µM (inactive)	48.1 µM (inactive)	90.2 µM (inactive)	> 100 µM (inactive)	> 100 µM (inactive)	> 100 µM (inactive)	32 µM (inactive)	> 100 µM (inactive)	> 100 µM (inactive)	> 100 µM (inactive)	–	–
O=C(Oc1cc(=O)c(OC(=O)c2ccccc2)co1)c1ccccc1	> 100 µM (inactive)	85.3 µM (inactive)	> 100 µM (inactive)	93.8 µM (inactive)	47.4 µM (inactive)	> 100 µM (inactive)	46.5 µM (inactive)	> 100 µM (inactive)	90.4 µM (inactive)	–	> 100 µM (inactive)	80 µM (inactive)	> 100 µM (inactive)	> 100 µM (inactive)	33.3 µM (inactive)	> 100 µM (inactive)	31.7 µM (inactive)	25.3 µM (inactive)	34.8 µM (inactive)	–
CC(C)CC(=O)CC(O)C(Cl)(Cl)Cl (stereo not given)	> 100 µM (inactive)	> 100 µM (inactive)	> 100 µM (inactive)	56.2 µM (inactive)	> 100 µM (inactive)	> 100 µM (inactive)	–	> 100 µM (inactive)	–	> 100 µM (inactive)	> 100 µM (inactive)	> 100 µM (inactive)	> 100 µM (inactive)	> 100 µM (inactive)	> 100 µM (inactive)	> 100 µM (inactive)	> 100 µM (inactive)	20.7 µM (inactive)	–	> 100 µM (inactive)
Cc1ccc2c(c1C)C(=O)C1(C2)Cc2ccc3c(c2C1=O)CCC3 (stereo not given)	> 100 µM (inactive)	> 100 µM (inactive)	> 100 µM (inactive)	> 100 µM (inactive)	> 100 µM (inactive)	> 100 µM (inactive)	29.9 µM (inactive)	> 100 µM (inactive)	> 100 µM (inactive)	> 100 µM (inactive)	> 100 µM (inactive)	–	> 100 µM (inactive)	> 100 µM (inactive)	> 100 µM (inactive)	> 100 µM (inactive)	> 100 µM (inactive)	> 100 µM (inactive)	> 100 µM (inactive)	> 100 µM (inactive)
CN(C(=O)C12C3C4(C(=O)O)C1(C(=O)N(C)C(C)(C)C)C1C2(C(=O)O)C3(C(=O)N(C)C(C)(C)C)C14C(=O)N(C)C(C)(C)C)C(C)(C)C (stereo not given)	> 100 µM (inactive)	–	> 100 µM (inactive)	> 100 µM (inactive)	–	> 100 µM (inactive)	> 100 µM (inactive)	> 100 µM (inactive)	> 100 µM (inactive)	> 100 µM (inactive)	> 100 µM (inactive)	> 100 µM (inactive)	> 100 µM (inactive)	> 100 µM (inactive)	> 100 µM (inactive)	> 100 µM (inactive)	> 100 µM (inactive)	–	> 100 µM (inactive)	> 100 µM (inactive)
Cc1ccc(S(=O)(=O)N2CC3OC(C)(C)OC3C2CO)cc1 (stereo not given)	> 100 µM (inactive)	> 100 µM (inactive)	> 100 µM (inactive)	> 100 µM (inactive)	> 100 µM (inactive)	–	> 100 µM (inactive)	–	> 100 µM (inactive)	> 100 µM (inactive)	> 100 µM (inactive)	> 100 µM (inactive)	> 100 µM (inactive)	> 100 µM (inactive)	> 100 µM (inactive)	> 100 µM (inactive)	> 100 µM (inactive)	> 100 µM (inactive)	–	> 100 µM (inactive)
CCCN(C(=O)c1c(Cl)nnc(Cl)c1C(=O)c1cc(Cl)nnc1Cl)c1cc(Cl)nnc1Cl	18 µM (inactive)	18.5 µM (inactive)	7.91 µM (inactive)	3.24 µM (inactive)	3.65 µM (inactive)	10.6 µM (inactive)	7.28 µM (inactive)	5.77 µM (inactive)	4.35 µM (inactive)	4.19 µM (inactive)	16.9 µM (inactive)	19 µM (inactive)	6.03 µM (inactive)	2.29 µM (inactive)	3.36 µM (inactive)	11.5 µM (inactive)	3.08 µM (inactive)	–	2.48 µM (inactive)	2.92 µM (inactive)
O=c1nc2n(CCO)c(-c3ccccc3)c(-c3ccccc3)nc-2c(=O)[nH]1	> 100 µM (inactive)	> 100 µM (inactive)	> 100 µM (inactive)	> 100 µM (inactive)	> 100 µM (inactive)	> 100 µM (inactive)	> 100 µM (inactive)	> 100 µM (inactive)	> 100 µM (inactive)	> 100 µM (inactive)	> 100 µM (inactive)	> 100 µM (inactive)	> 100 µM (inactive)	> 100 µM (inactive)	> 100 µM (inactive)	> 100 µM (inactive)	40.6 µM (inactive)	> 100 µM (inactive)	–	> 100 µM (inactive)
O=C1O[C@H]2[C@H](OC(=O)c3cc(O)c(O)c(O)c3)[C@@H](OC(=O)c3cc(O)c(O)c4c3[C@@H]3C1=CC(=O)C(O)(O)C3(O)O4)[C@H](OC(=O)c1cc(O)c(O)c(O)c1)O[C@@H]2COC(=O)c1cc(O)c(O)c(O)c1 (stereo not given in full) [TERCHEBIN]	–	35.7 µM (inactive)	76 µM (inactive)	> 100 µM (inactive)	51.5 µM (inactive)	50.6 µM (inactive)	–	42.8 µM (inactive)	59.3 µM (inactive)	31.9 µM (inactive)	68.2 µM (inactive)	99.3 µM (inactive)	38.4 µM (inactive)	39.3 µM (inactive)	41.9 µM (inactive)	14.6 µM (inactive)	44.2 µM (inactive)	> 100 µM (inactive)	26.7 µM (inactive)	23 µM (inactive)
NC(=O)N/N=C1\C[C@H]2CCCC[C@H]2C1	> 100 µM (inactive)	> 100 µM (inactive)	> 100 µM (inactive)	> 100 µM (inactive)	> 100 µM (inactive)	> 100 µM (inactive)	> 100 µM (inactive)	–	> 100 µM (inactive)	> 100 µM (inactive)	> 100 µM (inactive)	> 100 µM (inactive)	> 100 µM (inactive)	83.4 µM (inactive)	> 100 µM (inactive)	> 100 µM (inactive)	> 100 µM (inactive)	–	> 100 µM (inactive)	–
CC(C)(C)OC(=O)N1C[C@H](CC(=O)OCc2ccccc2)C[C@H]1C(=O)OCC(Cl)(Cl)Cl	15.9 µM (inactive)	3.55 µM (inactive)	> 50 µM (inactive)	8.69 µM (inactive)	–	5.6 µM (inactive)	14.5 µM (inactive)	4.49 µM (inactive)	8.28 µM (inactive)	2 µM (inactive)	10.7 µM (inactive)	22.8 µM (inactive)	5.31 µM (inactive)	6.07 µM (inactive)	1.19 µM (inactive)	2.76 µM (inactive)	2.04 µM (inactive)	6.28 µM (inactive)	2.68 µM (inactive)	1.35 µM (inactive)
O=C1c2cc([N+](=O)[O-])cnc2S(=O)(=O)N1c1ccc(Br)cc1	> 100 µM (inactive)	> 100 µM (inactive)	> 100 µM (inactive)	> 100 µM (inactive)	> 100 µM (inactive)	> 100 µM (inactive)	> 100 µM (inactive)	> 100 µM (inactive)	> 100 µM (inactive)	–	> 100 µM (inactive)	> 100 µM (inactive)	> 100 µM (inactive)	> 100 µM (inactive)	> 100 µM (inactive)	> 100 µM (inactive)	> 100 µM (inactive)	> 100 µM (inactive)	> 100 µM (inactive)	> 100 µM (inactive)
COC1CC(OC2CCC3(C)C(CCC45CCC(C6=CC(=O)OC6)C(C)(CCC43)C5=O)C2)OC(C)C1O (stereo not given)	51.2 µM (inactive)	53.1 µM (inactive)	15.9 µM (inactive)	28.2 µM (inactive)	> 10 µM (inactive)	> 100 µM (inactive)	20.3 µM (inactive)	22.5 µM (inactive)	17.5 µM (inactive)	59.8 µM (inactive)	13.1 µM (inactive)	27 µM (inactive)	> 100 µM (inactive)	55.8 µM (inactive)	32.1 µM (inactive)	64.4 µM (inactive)	28.1 µM (inactive)	–	18.8 µM (inactive)	18.4 µM (inactive)
O=C1CS(=O)(=O)C(c2cccc(Oc3ccccc3)c2)N1c1cccc(Cl)c1 (stereo not given)	26.6 µM (inactive)	27.7 µM (inactive)	66.8 µM (inactive)	27.5 µM (inactive)	–	12.5 µM (inactive)	18 µM (inactive)	33.5 µM (inactive)	23.2 µM (inactive)	13.1 µM (inactive)	0.16 µM (active)	40.2 µM (inactive)	13.9 µM (inactive)	22.1 µM (inactive)	19.1 µM (inactive)	26.5 µM (inactive)	12.1 µM (inactive)	20 µM (inactive)	30 µM (inactive)	26.1 µM (inactive)

Reference: ChEMBL document CHEMBL1201862, “PubChem BioAssay data set” (2004)
